Tests used:
Adenosine kinase = Adenosine kinase (Homo sapiens, UniProt P55263); assay: Inhibitory activity against human recombinant adenosine kinase
Rattus norvegicus = assay: Anti-inflammatory activity at a dose of 10 mg/kg, perorally in rat Carrageenan paw edema model; assay type: functional; conditions: route oral

Sequence of Adenosine kinase (P55263 whole entry): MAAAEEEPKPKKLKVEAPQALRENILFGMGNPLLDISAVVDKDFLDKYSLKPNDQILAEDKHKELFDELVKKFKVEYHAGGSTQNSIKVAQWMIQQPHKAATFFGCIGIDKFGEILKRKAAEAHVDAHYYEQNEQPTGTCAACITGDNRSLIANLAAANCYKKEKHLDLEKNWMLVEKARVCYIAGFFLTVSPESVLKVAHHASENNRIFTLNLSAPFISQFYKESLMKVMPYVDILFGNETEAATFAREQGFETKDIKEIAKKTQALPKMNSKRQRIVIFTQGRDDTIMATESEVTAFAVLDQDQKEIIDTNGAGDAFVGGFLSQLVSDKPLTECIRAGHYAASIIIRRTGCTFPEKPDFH

SMILES | IC50 (Adenosine kinase) [nM] | inhibition in vivo at 10 mg/kg (Rattus norvegicus) [%]
C[C@H]1O[C@@H](n2cc(-c3ccccc3)c3c(Nc4ccc(F)cc4)ncnc32)[C@H](O)[C@@H]1O (single isomer, unassigned) | 5 | –
OC[C@@H]1O[C@@H](n2nc(-c3ccccc3)c3c(Nc4ccccc4)ncnc32)[C@H](O)[C@@H]1O (single isomer, unassigned) | 2.8 | 14.2
Nc1ncnc2c1c(Br)cn2[C@@H]1O[C@@H](CO)[C@@H](O)[C@H]1O (single isomer, unassigned) | 280 | –
COC[C@@H]1O[C@@H](n2cc(-c3ccccc3)c3c(Nc4ccccc4)ncnc32)[C@H](O)[C@@H]1O (single isomer, unassigned) | 15 | 86
Nc1ncnc2c1c(I)cn2[C@@H]1O[C@@H](CO)[C@@H](O)[C@H]1O (single isomer, unassigned) | – | 43.8
OC[C@@H]1O[C@@H](n2cc(-c3ccccc3)c3c(Nc4ccc(F)cc4)ncnc32)[C@H](O)[C@@H]1O (single isomer, unassigned) | 1.5 | 53.5

Second part, led by results:

IC50 (Adenosine kinase) [nM] | SMILES | inhibition in vivo at 10 mg/kg (Rattus norvegicus) [%]
42 | NC[C@@H]1O[C@@H](n2nc(-c3ccccc3)c3c(Nc4ccccc4)ncnc32)[C@H](O)[C@@H]1O (single isomer, unassigned) | –
10000 | NC[C@@H]1O[C@@H](n2cnc3c(N)ncnc32)[C@H](O)[C@@H]1O (single isomer, unassigned) | –
2000 | COC[C@@H]1O[C@@H](n2cc(I)c3c(N)ncnc32)[C@H](O)[C@@H]1O (single isomer, unassigned) | –
4 | NC[C@H]1O[C@@H](n2nc(Br)c3c(N)ncnc32)[C@H](O)[C@@H]1O (single isomer, unassigned) | –
10000 | Nc1ncnc2c1c(Br)nn2[C@@H]1O[C@@H](CO)[C@@H](O)[C@H]1O (single isomer, unassigned) | –
16 | NC[C@@H]1O[C@@H](n2cc(I)c3c(N)ncnc32)[C@H](O)[C@@H]1O (single isomer, unassigned) | –
1000 | Nc1ncnc2c1ncn2[C@@H]1O[C@@H](CO)[C@@H](O)[C@H]1O (single isomer, unassigned) | –
170 | NC[C@@H]1O[C@@H](n2nc(Br)c3c(N)ncnc32)[C@H](O)[C@@H]1O (single isomer, unassigned) | –

Source: ChEMBL document CHEMBL1136804, “Adenosine kinase inhibitors. 3. Synthesis, SAR, and antiinflammatory activity of a series of l-lyxofuranosyl nucleosides” (J Med Chem, 2003)
